Experimental data as given in the kinase profiling compilation of Christmann-Franck et al. (2016).

Experiments:
Assay in all cases: KINOMEscan competition binding
Settings in all cases: compound 10.0 µM
[1] = test system: ABL1 (human), P00519 [F317I]
[2] = test system: ABL1 (human), P00519 [F317L]
[3] = target: AKT2 (human) (UniProt P31751)
[4] = target: BTK (human) (UniProt Q06187)
[5] = target: CAMK1D (human) (UniProt Q8IU85)
[6] = target: CAMK2D (human) (UniProt Q13557)
[7] = target: CDC42BPB (human) (UniProt Q9Y5S2)
Chain of CDC42BPB (human) (Q9Y5S2 whole entry, looked up): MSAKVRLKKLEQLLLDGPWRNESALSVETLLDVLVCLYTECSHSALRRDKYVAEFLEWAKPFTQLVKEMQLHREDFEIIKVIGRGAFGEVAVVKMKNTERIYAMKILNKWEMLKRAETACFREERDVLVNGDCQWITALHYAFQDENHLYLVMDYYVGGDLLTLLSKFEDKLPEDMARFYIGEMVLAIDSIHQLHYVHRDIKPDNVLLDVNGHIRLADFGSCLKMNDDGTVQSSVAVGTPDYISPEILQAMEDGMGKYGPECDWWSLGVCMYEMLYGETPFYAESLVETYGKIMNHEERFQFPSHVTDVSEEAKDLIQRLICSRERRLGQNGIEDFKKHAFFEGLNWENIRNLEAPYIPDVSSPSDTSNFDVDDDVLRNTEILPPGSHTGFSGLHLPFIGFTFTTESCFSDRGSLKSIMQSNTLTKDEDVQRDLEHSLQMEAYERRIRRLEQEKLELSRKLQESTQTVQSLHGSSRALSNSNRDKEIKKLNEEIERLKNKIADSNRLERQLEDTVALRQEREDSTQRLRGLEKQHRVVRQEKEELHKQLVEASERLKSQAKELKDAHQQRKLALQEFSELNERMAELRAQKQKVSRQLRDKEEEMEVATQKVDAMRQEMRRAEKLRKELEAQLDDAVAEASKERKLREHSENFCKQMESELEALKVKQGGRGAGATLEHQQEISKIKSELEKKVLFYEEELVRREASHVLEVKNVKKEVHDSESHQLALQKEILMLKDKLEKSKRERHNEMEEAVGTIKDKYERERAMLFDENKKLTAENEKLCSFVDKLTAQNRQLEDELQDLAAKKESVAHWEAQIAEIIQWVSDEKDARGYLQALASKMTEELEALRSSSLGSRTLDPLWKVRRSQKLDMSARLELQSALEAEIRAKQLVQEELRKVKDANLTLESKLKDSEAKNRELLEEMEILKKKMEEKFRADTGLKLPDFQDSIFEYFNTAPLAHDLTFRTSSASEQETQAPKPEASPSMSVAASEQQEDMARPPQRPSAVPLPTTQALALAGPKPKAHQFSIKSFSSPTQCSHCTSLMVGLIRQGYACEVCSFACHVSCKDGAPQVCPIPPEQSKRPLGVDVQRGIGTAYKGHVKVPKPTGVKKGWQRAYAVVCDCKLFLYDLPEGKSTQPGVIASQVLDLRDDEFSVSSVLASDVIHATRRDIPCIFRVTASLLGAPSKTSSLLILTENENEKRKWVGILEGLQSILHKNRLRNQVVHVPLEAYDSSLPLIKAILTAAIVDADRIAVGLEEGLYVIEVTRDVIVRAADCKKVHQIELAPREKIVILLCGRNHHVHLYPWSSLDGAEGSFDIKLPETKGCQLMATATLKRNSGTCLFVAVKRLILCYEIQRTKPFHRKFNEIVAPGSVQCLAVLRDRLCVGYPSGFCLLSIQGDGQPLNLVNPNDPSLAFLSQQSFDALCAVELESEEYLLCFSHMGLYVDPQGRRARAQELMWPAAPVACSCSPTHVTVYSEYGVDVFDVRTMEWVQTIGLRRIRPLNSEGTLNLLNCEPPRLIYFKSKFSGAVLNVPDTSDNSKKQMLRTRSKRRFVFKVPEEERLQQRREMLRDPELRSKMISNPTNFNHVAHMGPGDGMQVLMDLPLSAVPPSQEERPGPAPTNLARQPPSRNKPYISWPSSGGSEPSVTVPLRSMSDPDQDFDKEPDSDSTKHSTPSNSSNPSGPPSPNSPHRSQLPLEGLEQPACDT

[8] = target: CDK5 (human) (UniProt Q00535)
[9] = target: CDKL2 (human) (UniProt Q92772)
[10] = target: CHEK2 (human) (UniProt O96017)
[11] = test system: EGFR (human), P00533 [L861Q]
[12] = target: EPHA2 (human) (UniProt P29317)
[13] = target: EPHA4 (human) (UniProt P54764)
[14] = target: EPHB2 (human) (UniProt P29323)
[15] = target: FER (human) (UniProt P16591)
[16] = test system: FGFR3 (human), P22607 [G697C]
[17] = target: IRAK3 (human) (UniProt Q9Y616)
Chain of IRAK3 (human) (Q9Y616 whole entry, looked up): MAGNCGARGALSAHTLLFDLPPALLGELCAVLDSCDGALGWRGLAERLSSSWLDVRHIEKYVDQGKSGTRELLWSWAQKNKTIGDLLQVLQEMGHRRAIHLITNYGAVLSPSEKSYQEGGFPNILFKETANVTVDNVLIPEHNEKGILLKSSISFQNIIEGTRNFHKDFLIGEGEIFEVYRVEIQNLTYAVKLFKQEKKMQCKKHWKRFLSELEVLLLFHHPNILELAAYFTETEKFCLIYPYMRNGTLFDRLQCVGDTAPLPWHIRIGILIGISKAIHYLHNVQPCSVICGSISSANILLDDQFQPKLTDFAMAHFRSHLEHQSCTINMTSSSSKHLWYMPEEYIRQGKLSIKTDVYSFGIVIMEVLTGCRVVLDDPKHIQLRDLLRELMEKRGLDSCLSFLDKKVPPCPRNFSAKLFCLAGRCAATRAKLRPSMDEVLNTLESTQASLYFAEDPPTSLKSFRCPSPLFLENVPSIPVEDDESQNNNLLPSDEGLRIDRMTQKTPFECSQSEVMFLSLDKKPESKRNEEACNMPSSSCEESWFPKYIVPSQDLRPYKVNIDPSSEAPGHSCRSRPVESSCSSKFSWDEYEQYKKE

[18] = target: JAK2 JH1 catalytic (human) (UniProt O60674)
[19] = target: LATS2 (human) (UniProt Q9NRM7)
[20] = target: LIMK2 (human) (UniProt P53671)
[21] = target: MAP3K10 (human) (UniProt Q02779)
[22] = target: MAP3K11 (human) (UniProt Q16584)
[23] = target: MAP4K1 (human) (UniProt Q92918)
[24] = target: MAPKAPK5 (human) (UniProt Q8IW41)
Chain of MAPKAPK5 (human) (Q8IW41 whole entry, looked up): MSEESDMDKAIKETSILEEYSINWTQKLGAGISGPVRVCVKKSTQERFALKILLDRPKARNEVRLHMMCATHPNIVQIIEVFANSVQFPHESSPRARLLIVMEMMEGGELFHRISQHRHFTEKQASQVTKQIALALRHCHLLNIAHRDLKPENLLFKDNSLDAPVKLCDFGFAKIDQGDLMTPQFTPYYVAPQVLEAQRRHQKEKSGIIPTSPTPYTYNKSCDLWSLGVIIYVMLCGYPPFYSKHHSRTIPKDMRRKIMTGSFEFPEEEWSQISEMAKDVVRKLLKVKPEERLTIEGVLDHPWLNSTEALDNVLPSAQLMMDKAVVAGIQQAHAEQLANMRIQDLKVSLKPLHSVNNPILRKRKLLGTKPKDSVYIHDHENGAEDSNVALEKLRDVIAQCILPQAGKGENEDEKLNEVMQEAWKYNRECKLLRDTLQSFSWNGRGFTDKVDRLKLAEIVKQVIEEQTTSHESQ

[25] = target: MYO3A (human) (UniProt Q8NEV4)
[26] = target: NEK6 (human) (UniProt Q9HC98)
Chain of NEK6 (human) (Q9HC98 whole entry, looked up): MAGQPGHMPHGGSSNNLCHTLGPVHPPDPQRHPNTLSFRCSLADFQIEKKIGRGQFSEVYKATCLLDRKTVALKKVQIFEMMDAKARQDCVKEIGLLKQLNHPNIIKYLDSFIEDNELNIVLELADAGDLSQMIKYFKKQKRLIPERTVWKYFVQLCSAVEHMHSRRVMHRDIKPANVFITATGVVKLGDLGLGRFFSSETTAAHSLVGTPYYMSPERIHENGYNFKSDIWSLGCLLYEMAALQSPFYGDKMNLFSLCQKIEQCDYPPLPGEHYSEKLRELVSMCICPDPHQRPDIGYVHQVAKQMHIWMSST

[27] = target: NLK (human) (UniProt Q9UBE8)
[28] = target: PAK6 (human) (UniProt Q9NQU5)
[29] = target: PAK7 (human) (UniProt Q9P286)
Chain of PAK7 (human) (Q9P286 whole entry, looked up): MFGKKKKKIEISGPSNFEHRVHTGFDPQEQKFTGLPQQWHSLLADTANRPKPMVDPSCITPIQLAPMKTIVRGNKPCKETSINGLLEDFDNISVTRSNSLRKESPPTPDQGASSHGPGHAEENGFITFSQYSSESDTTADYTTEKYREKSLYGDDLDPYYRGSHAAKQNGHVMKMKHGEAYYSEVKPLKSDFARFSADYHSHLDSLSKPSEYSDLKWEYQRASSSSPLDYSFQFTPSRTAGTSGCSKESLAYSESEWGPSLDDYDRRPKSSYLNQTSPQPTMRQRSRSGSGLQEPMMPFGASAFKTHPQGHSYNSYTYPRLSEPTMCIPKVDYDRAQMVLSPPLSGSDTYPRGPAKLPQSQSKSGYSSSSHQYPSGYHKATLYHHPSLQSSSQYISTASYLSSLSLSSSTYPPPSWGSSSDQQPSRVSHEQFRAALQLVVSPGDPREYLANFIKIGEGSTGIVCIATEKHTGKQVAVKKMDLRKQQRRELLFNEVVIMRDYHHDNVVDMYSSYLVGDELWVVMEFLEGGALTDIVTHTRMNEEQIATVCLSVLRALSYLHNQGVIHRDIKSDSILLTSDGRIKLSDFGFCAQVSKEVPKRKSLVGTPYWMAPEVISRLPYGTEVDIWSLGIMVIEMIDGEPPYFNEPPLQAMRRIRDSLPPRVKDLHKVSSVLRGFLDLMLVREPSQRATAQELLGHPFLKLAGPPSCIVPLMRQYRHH

[30] = test system: PIK3CA (human), P42336 [E545K]
[31] = target: PIK3CD (human) (UniProt O00329)
[32] = target: PRKAA1 (human) (UniProt Q13131)
[33] = target: PRKCH (human) (UniProt P24723)
Chain of PRKCH (human) (P24723 whole entry, looked up): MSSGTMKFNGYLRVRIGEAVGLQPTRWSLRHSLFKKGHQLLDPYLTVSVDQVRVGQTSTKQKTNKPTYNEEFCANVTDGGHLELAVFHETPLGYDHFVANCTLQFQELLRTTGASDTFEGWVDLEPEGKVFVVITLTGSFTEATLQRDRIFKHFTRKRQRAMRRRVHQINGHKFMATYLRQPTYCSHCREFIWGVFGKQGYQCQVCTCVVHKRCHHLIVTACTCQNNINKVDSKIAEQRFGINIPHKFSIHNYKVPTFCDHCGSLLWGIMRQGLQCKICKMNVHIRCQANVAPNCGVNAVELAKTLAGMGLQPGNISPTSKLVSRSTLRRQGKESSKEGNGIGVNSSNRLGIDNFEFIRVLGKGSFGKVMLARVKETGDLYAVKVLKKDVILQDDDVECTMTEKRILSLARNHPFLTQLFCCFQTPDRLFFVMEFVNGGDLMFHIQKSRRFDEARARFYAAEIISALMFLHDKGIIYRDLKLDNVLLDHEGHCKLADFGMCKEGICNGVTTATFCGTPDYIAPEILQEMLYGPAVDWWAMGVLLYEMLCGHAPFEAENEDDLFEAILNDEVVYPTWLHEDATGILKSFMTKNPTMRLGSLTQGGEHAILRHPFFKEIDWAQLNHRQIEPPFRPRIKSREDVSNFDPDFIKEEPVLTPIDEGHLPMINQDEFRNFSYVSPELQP

[34] = target: PTK2B (human) (UniProt Q14289)
[35] = target: SGK110 (human) (UniProt P0C264)
[36] = target: SRC (human) (UniProt P12931)
[37] = target: STK10 (human) (UniProt O94804)
[38] = target: STK38L (human) (UniProt Q9Y2H1)
Chain of STK38L (human) (Q9Y2H1 whole entry, looked up): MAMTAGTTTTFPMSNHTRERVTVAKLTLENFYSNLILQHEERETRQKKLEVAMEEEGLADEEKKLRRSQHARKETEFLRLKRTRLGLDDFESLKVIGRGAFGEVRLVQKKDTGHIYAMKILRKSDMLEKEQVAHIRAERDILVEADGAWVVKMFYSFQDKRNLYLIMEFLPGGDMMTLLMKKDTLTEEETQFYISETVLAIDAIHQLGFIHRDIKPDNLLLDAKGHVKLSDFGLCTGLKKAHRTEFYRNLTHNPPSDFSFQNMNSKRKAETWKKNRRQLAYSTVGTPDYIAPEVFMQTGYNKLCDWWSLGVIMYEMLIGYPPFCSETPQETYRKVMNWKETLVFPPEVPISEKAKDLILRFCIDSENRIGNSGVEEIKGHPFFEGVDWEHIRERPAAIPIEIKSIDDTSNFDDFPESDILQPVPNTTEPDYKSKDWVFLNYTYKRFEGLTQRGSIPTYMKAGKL

[39] = target: TIE1 (human) (UniProt P35590)
[40] = target: TSSK1B (human) (UniProt Q9BXA7)
[41] = target: WEE1 (human) (UniProt P30291)
[42] = target: WEE2 (human) (UniProt P0C1S8)

## CN1C(=O)c2ccccc2N(C)c2nc(NS(=O)(=O)c3ccc(N)cc3)ncc21
[1]
  kinase still bound, per cent of control: 100%
[2]
  kinase still bound, per cent of control: 100%
[3]
  kinase still bound, per cent of control: 100%
[4]
  kinase still bound, per cent of control: 100%
[5]
  kinase still bound, per cent of control: 100%
[6]
  kinase still bound, per cent of control: 100%
[7]
  kinase still bound, per cent of control: 100%
[8]
  kinase still bound, per cent of control: 100%
[9]
  kinase still bound, per cent of control: 100%
[10]
  kinase still bound, per cent of control: 100%
[11]
  kinase still bound, per cent of control: 84%
[12]
  kinase still bound, per cent of control: 100%
[13]
  kinase still bound, per cent of control: 100%
[14]
  kinase still bound, per cent of control: 94%
[15]
  kinase still bound, per cent of control: 62%
[16]
  kinase still bound, per cent of control: 100%
[17]
  kinase still bound, per cent of control: 100%
[18]
  kinase still bound, per cent of control: 42%
[19]
  kinase still bound, per cent of control: 100%
[20]
  kinase still bound, per cent of control: 100%
[21]
  kinase still bound, per cent of control: 100%
[22]
  kinase still bound, per cent of control: 100%
[23]
  kinase still bound, per cent of control: 80%
[24]
  kinase still bound, per cent of control: 100%
[25]
  kinase still bound, per cent of control: 100%
[26]
  kinase still bound, per cent of control: 100%
[27]
  kinase still bound, per cent of control: 100%
[28]
  kinase still bound, per cent of control: 100%
[29]
  kinase still bound, per cent of control: 88%
[30]
  kinase still bound, per cent of control: 91%
[31]
  kinase still bound, per cent of control: 91%
[32]
  kinase still bound, per cent of control: 100%
[33]
  kinase still bound, per cent of control: 86%
[34]
  kinase still bound, per cent of control: 100%
[35]
  kinase still bound, per cent of control: 100%
[36]
  kinase still bound, per cent of control: 100%
[37]
  kinase still bound, per cent of control: 100%
[38]
  kinase still bound, per cent of control: 100%
[39]
  kinase still bound, per cent of control: 100%
[40]
  kinase still bound, per cent of control: 100%
[41]
  kinase still bound, per cent of control: 99%
[42]
  kinase still bound, per cent of control: 100%

## COc1cc(N2CCN(C)CC2)ccc1Nc1ncc2c(n1)Nc1ccccc1NC2=O
[1]
  kinase still bound, per cent of control: 65%
[2]
  kinase still bound, per cent of control: 29%
[3]
  kinase still bound, per cent of control: 100%
[4]
  kinase still bound, per cent of control: 23%
[5]
  kinase still bound, per cent of control: 100%
[6]
  kinase still bound, per cent of control: 92%
[7]
  kinase still bound, per cent of control: 100%
[8]
  kinase still bound, per cent of control: 87%
[9]
  kinase still bound, per cent of control: 9.5%
[10]
  kinase still bound, per cent of control: 84%
[11]
  kinase still bound, per cent of control: 61%
[12]
  kinase still bound, per cent of control: 100%
[13]
  kinase still bound, per cent of control: 100%
[14]
  kinase still bound, per cent of control: 82%
[15]
  kinase still bound, per cent of control: 100%
[16]
  kinase still bound, per cent of control: 84%
[17]
  kinase still bound, per cent of control: 79%
[18]
  kinase still bound, per cent of control: 85%
[19]
  kinase still bound, per cent of control: 89%
[20]
  kinase still bound, per cent of control: 100%
[21]
  kinase still bound, per cent of control: 100%
[22]
  kinase still bound, per cent of control: 88%
[23]
  kinase still bound, per cent of control: 100%
[24]
  kinase still bound, per cent of control: 100%
[25]
  kinase still bound, per cent of control: 80%
[26]
  kinase still bound, per cent of control: 99%
[27]
  kinase still bound, per cent of control: 100%
[28]
  kinase still bound, per cent of control: 100%
[29]
  kinase still bound, per cent of control: 78%
[30]
  kinase still bound, per cent of control: 100%
[31]
  kinase still bound, per cent of control: 100%
[32]
  kinase still bound, per cent of control: 87%
[33]
  kinase still bound, per cent of control: 96%
[34]
  kinase still bound, per cent of control: 99%
[35]
  kinase still bound, per cent of control: 97%
[36]
  kinase still bound, per cent of control: 48%
[37]
  kinase still bound, per cent of control: 100%
[38]
  kinase still bound, per cent of control: 100%
[39]
  kinase still bound, per cent of control: 24%
[40]
  kinase still bound, per cent of control: 64%
[41]
  kinase still bound, per cent of control: 86%
[42]
  kinase still bound, per cent of control: 93%
